Measurements: patent publication US7342018B2, “Urokinase inhibitors and uses thereof” (Wilex AG, priority 1998, dated 2008)
Values joined by “and” are separate entries in the source; they are usually repeats but may differ in a detail not shown here. Equal values may be shown once.

Assays:
[1] = target: Factor Xa (Homo sapiens, UniProt P00742); test: In vitro inhibition of serine proteases: factor Xa; format: biochemical
Experimental: Ki values were determined according to Dixon by linear regression using a computer program.

[2] = target: Plasma kallikrein (Homo sapiens, UniProt P03952); test: In vitro inhibition of serine proteases: plasma kallikrein; format: biochemical
Plasma kallikrein, sequence (P03952 20-638, species assumed): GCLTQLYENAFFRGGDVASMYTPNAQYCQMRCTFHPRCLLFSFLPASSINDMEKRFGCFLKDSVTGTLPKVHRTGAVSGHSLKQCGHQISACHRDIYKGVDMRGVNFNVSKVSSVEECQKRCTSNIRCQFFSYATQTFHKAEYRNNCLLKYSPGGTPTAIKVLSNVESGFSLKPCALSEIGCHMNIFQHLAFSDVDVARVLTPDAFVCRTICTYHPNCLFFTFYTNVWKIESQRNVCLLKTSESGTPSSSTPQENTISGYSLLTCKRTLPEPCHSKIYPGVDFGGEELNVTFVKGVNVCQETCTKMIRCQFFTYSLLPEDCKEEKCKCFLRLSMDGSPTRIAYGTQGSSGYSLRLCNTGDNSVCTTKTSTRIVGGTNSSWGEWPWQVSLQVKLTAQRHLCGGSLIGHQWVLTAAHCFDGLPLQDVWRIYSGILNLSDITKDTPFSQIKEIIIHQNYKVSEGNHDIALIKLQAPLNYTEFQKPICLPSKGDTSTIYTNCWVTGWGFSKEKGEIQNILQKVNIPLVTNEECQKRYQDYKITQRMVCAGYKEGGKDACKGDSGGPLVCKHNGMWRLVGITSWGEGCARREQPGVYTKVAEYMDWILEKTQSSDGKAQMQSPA
Experimental: To determine the inhibitory activity, 200 μl of Tris buffer (0.05 mol/l, containing the inhibitor, 0.154 mol/l NaCl, 5% ethanol pH 8.0), 25 μl of substrate (Pefachrome UK or Bz-βAla-Gly-Arg-pNA in H2O; Pentapharm Ltd., Basle, Switzerland) and 50 μl of sc-urokinase (Ribosepharm GmbH, Haan, Germany) were incubated at 25° C. After 3 min the reaction was stopped by adding 25 μl of acetic acid (50%), and the absorption at 405 nm was determined by means of a Microplate Reader (MR 5000, Dynatech, Denkendorf, Germany). Ki values were determined according to Dixon by linear regression using a computer program. The Ki values are the mean values of at least three determinations with a standard deviation of less than 25%.
The inhibition activities of the enzymes used were determined according to the principle described in Example 3.

[3] = test system: human breast carcinoma cells; test: Fibrin matrix degradation assay (D dimer ELISA); format: cell-based; conditions: different concentrations, 4 h (FIG. 2)
Experimental: To study the potential of tumor cells for breaking down an extracellular matrix, a fibrin matrix degradation assay was developed and used. A greater proteolytic activity of the tumor cells leads to a higher concentration of fibrin degradation products in the matrix supernatant. The matrix degradation capacity corresponds to the concentration of fibrin degradation products which are determined by means of ELISA (D dimer).
The fibrin gels were prepared in 24-well culture dishes from […] of fibrinogen (50 mg/ml) in PBS (pH 7.4), by 50 μl of thrombin (10 U/ml) and 50 μl of CaCl2 (150 mM) per well after incubation at 37° C. for 30 minutes. 2×10^5 breast carcinoma cells were seeded on said fibrin matrix in 1 ml of DMEM culture medium plus 10% fetal calf serum and 2 μg of Glu-plasminogen, and incubated for 4 h. The supernatant was then centrifuged, in order to remove the cells, and the fibrin degradation products were quantified by means of ELISA.

[4] = Biodistribution of the inhibitor in rats (HPLC of tissue extracts); format: in vivo, rat; conditions: for concentration in tracheal lymph nodes: two independent experiments, hydrochloride
Experimental: The biodistribution of the inhibitor was determined by two independent experiments in tissue extracts of rats which had been treated once a day with 1 mg/kg i.p. of inhibitor i.p. over a period of 5 or 10 days. For the lysis, in each case 100 mg of tissue were mechanically comminuted and mixed with 200 μl of 1% Triton X-100 in physiological NaCl solution. After adding 400 μl of ethanol, the mixture was sonicated for 1 min. The tissue extract was centrifuged at 12,000×g for 15 min. For prepurification, the supernatant was applied to a C18 Silica Reversed Phase column (Sep-Pak® cartridge C18, 1 ml Water, Eschborn, Germany), equilibrated with 1 ml of methanol and 1 ml of water, washed successively with 2×1 ml H2O, 1 ml 10% methanol, 1 ml H2O, 1 ml 5% acetonitrile, 0.04% perchloric acid and 1 ml H2O and eluted with 500 μl of 75% acetonitrile, 0.04% perchloric acid. HPLC analysis was carried out on a reversed phase C18 silica column with a 5-55% strength acetonitrile gradient containing 0.04% perchloric acid.

[5] = test system: rat breast tumor BN472; test: BN472 rat breast tumor model, metastatic lung foci (Example 10); format: in vivo
Text: In detail, the syngeneic transplantable spontaneously metastasizing rat breast tumor BN472 was used as a model. BN-472 transplantable rat mammary carcinoma used in this study was originally found spontaneously developed in a retired breeder female Brown Norway rat (Kort et al. J. Nat. Cancer Inst. 1984, 72: 7709-7713). The data presented here focus on the reduction in the number of metastatic lung foci as endpoint.
FIG. 7 depicts the anti-metastatic efficacy of WX-UK1 in a setting implying surgical resection of the orthotopically growing tumor at a defined size and various time points of therapy onset relative to resection. After orthotopic implantation of BN472 fragment under the mammary fat pad the primary tumors were allowed to grow to a fixed palpable size (4×4 mm). The treatments groups (n=18) were allocated in a way to ensure homogeneous group composition with respect to tumor residence periods (range 3-14 d) prior group allocation. Primary tumors were surgically removed 4 days after having reached the fixed size. Onsets of treatments with 0.3 mg/kg s.c. daily were group specifically either on the day of reaching the fixed size (PO)mor four (P4), eight (P8), or twelve (P112) days thereafter. […] Starting on day 3 after tumor inoculation treatment groups (n=15) received WX-UK1 at weekly doses of […] either by daily application of 0.3 mg/kg (0.3 mg/kg o.d.), by application of 1 mg/kg twice per week (1 mg/kg t.w.) or by dosing 2 mg/kg once per week (2 mg/kg o.w.). The anti-metastatic efficacy previously established with daily treatments was retained when WX-UK1 was administered only twice or once per week at the same weekly dose.
Treatment was initiated on day 3 after tumor inoculation. b) Groups of rats (n=8) were treated with 5-FU at 20 or 40 mg/kg i.v. once weekly either as mono-therapy or in combination with WX-UK1 i.p. treatments at 1 mg/kg twice weekly or with WX-UK1 alone. Indeed, WX-UK1 was efficacious at reducing lung foci numbers when combined with these standard therapeutics.

[6] = concluded from plasma vs tissue concentrations

Factor Xa, sequence (P00742 235-488 limits assumed): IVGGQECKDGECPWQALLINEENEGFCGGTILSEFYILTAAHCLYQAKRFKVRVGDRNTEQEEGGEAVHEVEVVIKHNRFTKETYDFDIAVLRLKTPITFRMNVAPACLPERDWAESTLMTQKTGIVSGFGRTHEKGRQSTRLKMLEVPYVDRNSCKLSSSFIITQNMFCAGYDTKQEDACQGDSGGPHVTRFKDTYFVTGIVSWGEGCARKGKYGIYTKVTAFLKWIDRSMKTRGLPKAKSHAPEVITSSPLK
Factor Xa, sequence (P00742 41-179 partner limits assumed): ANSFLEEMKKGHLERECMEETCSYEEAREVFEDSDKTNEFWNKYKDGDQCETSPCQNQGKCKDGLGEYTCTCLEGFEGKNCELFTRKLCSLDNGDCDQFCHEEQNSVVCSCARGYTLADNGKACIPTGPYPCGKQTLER

CCOC(=O)N1CCN(C(=O)[C@H](Cc2cccc(C(=N)N)c2)NS(=O)(=O)c2c(C(C)C)cc(C(C)C)cc2C(C)C)CC1.Cl [uPA inhibitor, Nα-2,4,6-Triisopropylphenylsulfonyl-(L)-3-amidinophenylalanine 4-ethoxycarbonylpiperazide hydrochloride]
Ki [1]: 1.7 µM | Ki [2]: 7.2 µM | inhibition of fibrin matrix degradation by breast carcinoma cells [3]: significant inhibition | Content Bile ([4]; 1 mg/kg i.p. 5 days): 1.96 µg/mL | Content Brain ([4]; 1 mg/kg i.p. 5 days): <0.5 µg/g | Content Fat/kidney ([4]; 1 mg/kg i.p. 5 days): 0.82 µg/g | Content Heart ([4]; 1 mg/kg i.p. 5 days): <0.5 µg/g | Content Kidney ([4]; 1 mg/kg i.p. 5 days): 2.67 µg/g | Content Liver ([4]; 1 mg/kg i.p. 5 days): 2.85 µg/g | Content Lung ([4]; 1 mg/kg i.p. 5 days): 3.70 µg/g | Content Lymph nodes/trachea ([4]; 1 mg/kg i.p. 5 days): 7.45 µg/g | Content Muscle ([4]; 1 mg/kg i.p. 5 days): 0.74 µg/g | Content Plasma ([4]; 1 mg/kg i.p. 5 days): 0.008 µg/mL | Content Spleen ([4]; 1 mg/kg i.p. 5 days): 2.02 µg/g | Content lymph nodes/axillary ([4]; 1 mg/kg i.p. 5 days): 1.97 µg/g | Content lymph nodes/knee ([4]; 1 mg/kg i.p. 5 days): 7.83 µg/g | Content Bile ([4]; 1 mg/kg i.p. 10 days): 1.75 µg/mL | Content Brain ([4]; 1 mg/kg i.p. 10 days): <0.5 µg/g | Content Fat/kidney ([4]; 1 mg/kg i.p. 10 days): 1.0 µg/g | Content Heart ([4]; 1 mg/kg i.p. 10 days): 1.09 µg/g | Content Kidney ([4]; 1 mg/kg i.p. 10 days): 2.48 µg/g | Content Liver ([4]; 1 mg/kg i.p. 10 days): 2.08 µg/g | Content Lung ([4]; 1 mg/kg i.p. 10 days): 1.81 µg/g | Content Lymph nodes/trachea ([4]; 1 mg/kg i.p. 10 days): 16.38 µg/g | Content Muscle ([4]; 1 mg/kg i.p. 10 days): <0.5 µg/g | Content Plasma ([4]; 1 mg/kg i.p. 10 days): 0.035 µg/mL | Content Spleen ([4]; 1 mg/kg i.p. 10 days): 2.48 µg/g | Content lymph nodes/axillary ([4]; 1 mg/kg i.p. 10 days): 2.74 µg/g | Content lymph nodes/knee ([4]; 1 mg/kg i.p. 10 days): 3.8 µg/g | plasma concentrations relative to the mean tissue concentrations ([4]; 24 h after the last i.p. administration): one to two orders of magnitude below | concentration in tracheal lymph nodes ([4]; after 5 days of administration): 5.3 µg/g and 7.5 µg/g | concentration in tracheal lymph nodes ([4]; after 10 days of administration): 21.6 µg/g and 16.4 µg/g | plasma protein binding [4, 6]: low plasma protein binding | tissue affinity [4, 6]: high tissue affinity | accumulation in lymph nodes ([4]; rat, in vivo): noticeable accumulation | anti-metastatic activity with surgical resection of the primary tumor ([5]; 0.3 mg/kg s.c. daily, various onsets relative to resection (FIG. 7)): Anti-metastatic activity was obvious | anti-metastatic efficacy at prolonged dosing intervals ([5]; 1 mg/kg twice per week or 2 mg/kg once per week vs 0.3 mg/kg daily (FIG. 8)): retained | reducing lung foci numbers in combination ([5]; combined with epirubicin or 5-FU (FIG. 9)): efficacious
